In article PMC7156458, “Synthetic biology based construction of biological activity-related library of fungal decalin-containing diterpenoid pyrones” (Nature Communications, 2020):
Values joined by “and” are separate entries in the source; they are usually repeats but may differ in a detail not shown here. Identical values can stand only once. Like-named read-outs stand apart in the source and are kept apart here.

Experiments:
[1] = cytotoxicity in Drosophila DL1 cells; type: cell-based; conditions: Drosophila, DL1 cells (embryonic macrophage-derived), DL1 cells
Procedure: (§1) We screened the DDPs on the Drosophila assay system for cytotoxicity, inhibitory activity of innate immune signalling and insecticidal activity. The cytotoxicity of the DDPs was evaluated using two cell lines, embryonic macrophage-derived DL1 cells[58]–[60] and larval blood cell-derived l(2)mbn cells, and their IC50 values are listed in Supplementary Table 23.

DL1 cells = test: cytotoxicity in Drosophila DL1 cells; type: cell-based; conditions: DL1 cells; for IC50: Drosophila melanogaster, cytotoxicity
Procedure: as §1

[2] = cytotoxicity in Drosophila l(2)mbn cells; type: cell-based; conditions: Drosophila, l(2)mbn cells (larval blood cell-derived)
Procedure: as §1

l(2)mbn cells = test: cytotoxicity in Drosophila l(2)mbn cells; type: cell-based; conditions: for Luminescence Raw1: replicate 1; for Luminescence Raw2: replicate 2
Procedure: as §1

MCF-7 cells = test: cell cytotoxic effects against MCF-7 cells (72 h), A490; type: cell-based, human; conditions: MCF-7, 72 h
MAGI cells = test: cytotoxicity in the anti-HIV assay (CC50); type: cell-based
[3] = system: human immunodeficiency virus-1 (HIV-1); test: anti-HIV MAGI assay; type: cell-based; conditions: Human immunodeficiency virus 1, MAGI, anti-HIV; average of numeric determinations; read-out: Avg. EC50
From the text: We examined the inhibitory activities of DDPs against various species of bacteria (both gram-negative and gram-positive bacteria), fungi and viruses. […] In contrast, preliminary screening of the DDPs for anti-viral agents with hepatitis B virus (HBV), measles virus (MV), Epstein-Barr virus (EBV), herpes simplex virus (HSV) and human immunodeficiency virus-1 (HIV-1) indicated their selective inhibition of HIV.

[4] = replicate 1, relative to DMSO 1%, read-out: % viability, viability 1
[5] = replicate 2, relative to DMSO 1%, read-out: % viability, viability 2

C=C1CCC2C(C)(CC(=O)C=C(C)C)C(O)CCC2(C)C1Cc1c(OC)oc(CO)c(C)c1=O (centres unmarked) [Compound 19]
viability at 0.04 µM [1, 4]: 92.6% | viability at 0.04 µM [1, 5]: 93.4% | viability at 0.2 µM [1, 4]: 78.6% | viability at 0.2 µM [1, 5]: 86.7% | viability at 1 µM [1, 4]: 92.1% | viability at 1 µM [1, 5]: 87% | viability at 4 µM [1, 4]: 86.9% | viability at 4 µM [1, 5]: 80.7% | viability at 10 µM [1, 4]: 52.8% | viability at 10 µM [1, 5]: 59.6% | viability at 20 µM [1, 4]: 15.3% | viability at 20 µM [1, 5]: 22.3% | Luminescence Raw1 (DL1 cells; 0.04 µM, replicate 1): 1907594 | Luminescence Raw2 (DL1 cells; 0.04 µM, replicate 2): 1924545 | Luminescence Raw1 (DL1 cells; 0.2 µM, replicate 1): 1618356 | Luminescence Raw2 (DL1 cells; 0.2 µM, replicate 2): 1786055 | Luminescence Raw1 (DL1 cells; 1 µM, replicate 1): 1896774 | Luminescence Raw2 (DL1 cells; 1 µM, replicate 2): 1792907 | Luminescence Raw1 (DL1 cells; 4 µM, replicate 1): 1789301 | Luminescence Raw2 (DL1 cells; 4 µM, replicate 2): 1663075 | Luminescence Raw1 (DL1 cells; 10 µM, replicate 1): 1087156 | Luminescence Raw2 (DL1 cells; 10 µM, replicate 2): 1227796 | Luminescence Raw1 (DL1 cells; 20 µM, replicate 1): 315492 | Luminescence Raw2 (DL1 cells; 20 µM, replicate 2): 459001 | IC50 (DL1 cells; average of two replicates, read-out: IC50 Average): 10.6 µM | IC50 (DL1 cells; average±SEM, read-out: IC50): 10.6 ± 0.23 µM | IC50 (DL1 cells; replicate 1, read-out: IC50 (1)): 10.3 µM | IC50 (DL1 cells; replicate 2, read-out: IC50 (2)): 10.8 µM | viability at 0.04 µM [2, 4]: 154% | viability at 0.04 µM [2, 5]: 105% | viability at 0.2 µM [2, 4]: 131% | viability at 0.2 µM [2, 5]: 120% | viability at 1 µM [2, 4]: 128% | viability at 1 µM [2, 5]: 131% | viability at 4 µM [2, 4]: 125% | viability at 4 µM [2, 5]: 116% | viability at 10 µM [2, 4]: 104% | viability at 10 µM [2, 5]: 136% | viability at 20 µM [2, 4]: 115% | viability at 20 µM [2, 5]: 117% | Luminescence Raw1 (l(2)mbn cells; 0.04 µM): 3944169 | Luminescence Raw2 (l(2)mbn cells; 0.04 µM): 2684872 | Luminescence Raw1 (l(2)mbn cells; 0.2 µM): 3351106 | Luminescence Raw2 (l(2)mbn cells; 0.2 µM): 3081647 | Luminescence Raw1 (l(2)mbn cells; 1 µM): 3286175 | Luminescence Raw2 (l(2)mbn cells; 1 µM): 3371307 | Luminescence Raw1 (l(2)mbn cells; 4 µM): 3215834 | Luminescence Raw2 (l(2)mbn cells; 4 µM): 2985337 | Luminescence Raw1 (l(2)mbn cells; 10 µM): 2665756 | Luminescence Raw2 (l(2)mbn cells; 10 µM): 3480969 | Luminescence Raw1 (l(2)mbn cells; 20 µM): 2956119 | Luminescence Raw2 (l(2)mbn cells; 20 µM): 3004455 | IC50 (l(2)mbn cells; Drosophila melanogaster, cytotoxicity, average±SEM, read-out: IC50): > 20 µM | viability at 0.1 µM (MCF-7 cells; Homo sapiens, MCF7, 72 h, 0.1 µM (DMSO 0.002%), read-out: A490 (control =1) ave): 65% | viability at 1 µM (MCF-7 cells; Homo sapiens, MCF7, 72 h, 1 µM (DMSO 0.02%), read-out: A490 (control =1) ave): 110% | viability at 10 µM (MCF-7 cells; Homo sapiens, MCF7, 72 h, 10 µM (DMSO 0.2%), read-out: A490 (control =1) ave): 104% | A490 ave (MCF-7 cells; 0.1 µM (DMSO 0.002%), control 1.064): 0.691 | A490 ave (MCF-7 cells; 1 µM (DMSO 0.02%), control 1.104): 1.209 | A490 ave (MCF-7 cells; 10 µM (DMSO 0.2%), control 1.049): 1.093 | Cytotoxicity Avg. (MAGI cells; average of numeric determinations): 6.013 µM | Cytotoxicity (MAGI cells; single determinations): 6.158 µM and 7.239 µM and 4.642 µM | EC50 [3]: 1600 nM
